Consider 1 compound from US11103486B2, “Treatment of autoimmune disorders and infections using antagonists of SGK1 activity” (THE JOHNS HOPKINS UNIVERSITY, priority 2011, dated 2021).

Where a SMILES comes first, the peptide text is derived from it. The star is where a group is joined. Cbz = O=C(OCc1ccccc1)*

In the assay the test system is JunB. The assay is described as follows: JunB protein levels by immunoblot of nuclear extracts of CD4+ T cells activated under Th2 skewing conditions. The format is cell-based, mice. Conditions: T-SGK1−/− CD4+ T cells activated under Th2 skewing conditions; MG132 added during the final 2 hours of stimulation. The method, then:
(11A) Nuclear and cytoplasmic extracts from Wt and T-SGK1−/− CD4+ T cells. Cells were purified by magnetic separation and stimulated for 72 hours in vitro with anti-CD3 and anti-CD28 and either (Th1) IL-12, IFN-γ, and anti-IL-4, or (Th2) IL-4, anti-IFN-γ, and anti-IL-12p40 skewing conditions. Cells were lysed and separated into nuclear and cytoplasmic fractions. Nuclear extracts were blotted for the expression of JunB, and Lamin B is included as a loading control. Cytosolic fractions were blotted to measure the E3 ligase activity of NEDD4L (S342), and actin is included as a loading control. (11B) Nuclear extract of Wt and T-SGK1−/− treated with MG132. As in A, but with the addition of the proteasome inhibitor MG-132 during the final 2 hours of stimulation. Nuclear fractions were blotted for JunB. (11C) Immunoprecipitates (IPs) of JunB from Wt and T-SGK1−/− CD4+ T cells skewed with IL4 and treated with MG132. As in B, but nuclear fractions were subject to IP with JunB antibody. […] Fold induction of long and short isoforms of TCF1 over no stimulation control, as analyzed by quantitative polymerase chain reaction. […] Cells were restimulated for 4 hours with phorbol 12-myristate 13-acetate (PMA) and ionomycin in the presence of a protein transport inhibitor, and analyzed for production of IFN-γ by intracellular staining. […]
For orientation: In western blotting, separated proteins are transferred to a membrane and probed.

As to `CC(C)C[C@@H](C=O)NC(=O)[C@H](CC(C)C)NC(=O)[C@H](CC(C)C)NC(=O)OCc1ccccc1` [MG132] (Cbz-Leu-Leu-Leu-aldehyde), the “JunB levels (immunoblot, nuclear fraction)” value is listed as “JunB levels increased”.
